# Data as given in patent US20260284005A1, “INHIBITING MITOGEN-ACTIVATED PROTEIN (MAP)/ERK KINASE (MEK)1 AND MEK2 AND RELATED METHODS OF TREATMENT” (priority 2023, published 2026).
# pIC50: −log10 of the molar value. Where two headings read alike, the source gives them in different places.
# Legend:
# MIA PaCa-2 cells = test: 3D-TGA; format: cell-based, human; conditions: KRAS G12C
# Panc 10.05 cells = test: 3D-TGA; format: cell-based, human; conditions: Panc 10.05, PAN, KRAS G12D, read-out: IC50 in 3D-TGA, agent alone
# Procedure: (§1) Cells were seeded in 3D cultures in a black-walled, clear-bottom, non-tissue culture treated, 384-well plate (3000 cells per well) using a 1:1 mixture of BME and a custom media and grown in a humidified incubator with 5% CO2 and 5% O2, which approximates capillary levels for each gas, at 37° C. […] Cells were assessed for cell proliferation using EdU cell proliferation staining. […] Cells were permeabilized with 30 μL of filtered 0.5% Triton X-100 in PBS for 20 minutes at room temperature. Samples were washed twice gently with PBS. Cells were stained utilizing click-iT chemistry by adding 20 μL of staining cocktail containing 2 mM copper sulfate, 8 μM sulfo-Cy5-azide, and 20 mg/ml ascorbic acid in PBS and incubated 30-60 minutes at room temperature in dark. […] Plates were imaged with the Molecular Devices Pico ImageXpress. Images were segmented and percentage of cells with EdU incorporation was quantified to calculate antiproliferative effects of the drugs.
# (§2) Five (5)-ethynyl-2′-deoxyuridine (EdU) data was represented as percentage EdU positive cells quantified by high content imaging from the Molecular Devices ImageXpress® Pico.
# Capan-1 cells = test: 3D-TGA; format: cell-based, human; conditions: Capan-1, PAN, KRAS G12V, read-out: IC50 in 3D-TGA, agent alone
# Procedure: as §1, §2
# SW626 cells = test: 3D-TGA; format: cell-based, human
# Procedure: as §1, §2
# PA-TU-8988T cells = test: 3D-TGA; format: cell-based, human; conditions: PAN, KRAS G12V, read-out: IC50 in 3D-TGA, agent alone
# Procedure: as §1, §2
# HT-29 cells = test: 3D-TGA; format: cell-based, human
# Procedure: as §1, §2
# LS1034 cells = test: 3D-TGA; format: cell-based, human; conditions: LS1034, COL, KRAS A146T, read-out: IC50 in 3D-TGA, agent alone
# Procedure: as §1, §2
# PANC-1 cells = test: 3D-TGA; format: cell-based, human; conditions: PANC-1, PAN, KRAS G12D, read-out: IC50 in 3D-TGA, agent alone
# Procedure: as §1, §2
# CFPAC-1 cells = test: 3D-TGA; format: cell-based, human; conditions: CFPAC-1, PAN, KRAS G12V, read-out: IC50 in 3D-TGA, agent alone
# Procedure: as §1, §2
# RCM-1 cells = test: 3D-TGA; format: cell-based, human
# Procedure: as §1, §2
# Capan-2 cells = test: 3D-TGA; format: cell-based, human; conditions: Capan-2, PAN, KRAS G12V, read-out: IC50 in 3D-TGA, agent alone
# Procedure: as §1, §2
# CL-40 cells = test: 3D-TGA; format: cell-based, human; conditions: read-out: IC50 in 3D-TGA, agent alone
# Procedure: as §1, §2
# HPAF-II cells = test: 3D-TGA; format: cell-based, human; conditions: PAN, KRAS G12D, read-out: IC50 in 3D-TGA, agent alone
# Procedure: as §1, §2
# HPAC cells = test: 3D-TGA; format: cell-based, human; conditions: PAN, KRAS G12D, read-out: IC50 in 3D-TGA, agent alone
# Procedure: as §1, §2
# SNU-1197 cells = test: 3D-TGA; format: cell-based, human; conditions: read-out: IC50 in 3D-TGA, agent alone
# Procedure: as §1, §2
# NCI-H358 cells = test: 3D-TGA; format: cell-based, human; conditions: NCI-H358, LUN, KRAS G12C
# PSN-1 cells = test: 3D-TGA; format: cell-based, human; conditions: PSN-1, PAN, KRAS G12R, read-out: IC50 in 3D-TGA, agent alone
# Procedure: as §1, §2
# Calu-6 cells = test: 3D-TGA; format: cell-based, human; conditions: Calu-6, LUN, KRAS Q61K; read-out: IC50 in 3D-TGA, agent alone
# Procedure: as §1, §2
# A549 cells = test: 3D-TGA; format: cell-based, human; conditions: A549, LUN, KRAS G12S; read-out: IC50 in 3D-TGA, agent alone
# Procedure: as §1, §2
# NCI-H1650 cells = test: 3D-TGA; format: cell-based; conditions: Homo sapiens, NCI-H1650, read-out: IC50 in 3D-TGA Osimertinib
# LS411N cells = test: 3D-TGA; format: cell-based; conditions: Homo sapiens, LS-411N, read-out: IC50 in 3D-TGA Osimertinib; LS411N, COL, BRAF V600E; agent alone
# NCI-H2172 cells = test: 3D-TGA; format: cell-based; conditions: Homo sapiens, read-out: IC50 in 3D-TGA Osimertinib; NCI-H2172, LUN, EGFR L858R; agent alone
# SK-CO-1 cells = test: 3D-TGA; format: cell-based; conditions: Homo sapiens, read-out: IC50 in 3D-TGA Osimertinib; SK-CO-1, COL, KRAS G12V; agent alone
# NCI-H1792 cells = test: 3D-TGA; format: cell-based, human; conditions: Homo sapiens, read-out: IC50 in 3D-TGA Osimertinib; NCI-H1792, LUN, KRAS G12C; agent alone
# NCI-H1975 cells = test: 3D-TGA; format: cell-based; conditions: Homo sapiens, read-out: IC50 in 3D-TGA Osimertinib; NCI-H1975, LUN, EGFR L858R; agent alone
# NCI-H508 cells = test: 3D-TGA; format: cell-based; conditions: Homo sapiens, read-out: IC50 in 3D-TGA Osimertinib; NCI-H508, COL, BRAF G596R; agent alone
# NCI-H820 cells = test: 3D-TGA; format: cell-based; conditions: Homo sapiens, read-out: IC50 in 3D-TGA Osimertinib; NCI-H820, LUN, EGFR T790M; agent alone
# HCC827 cells = test: cells; format: cell-based; conditions: Homo sapiens, HCC827, read-out: IC50 in 3D-TGA Osimertinib
# SW900 cells = test: 3D-TGA; format: cell-based; conditions: Homo sapiens, SW900, LUN, KRAS G12V, ALK G103R
# Procedure: as §1, §2
# NCI-H2087 cells = test: 3D-TGA; format: cell-based; conditions: Homo sapiens, NCI-H2087, LUN, NRAS Q61K, ALK S553A
# Procedure: as §1, §2
# CORL23 cells = test: 3D-TGA; format: cell-based; conditions: Homo sapiens, COR-L23, CORL23, LUN, KRAS G12V, ALK R317T
# Procedure: as §1, §2
# PA-TU-8988S cells = test: 3D-TGA; format: cell-based; conditions: Homo sapiens, PaTu 8988s, PAN, KRAS G12V, read-out: IC50 in 3D-TGA, agent alone
# Procedure: as §1, §2
# Panc 03.27 cells = test: 3D-TGA; format: cell-based; conditions: Homo sapiens, PANC-03-27; Panc 03.27, PAN, KRAS G12V; read-out: IC50 in 3D-TGA, agent alone
# Procedure: as §1, §2
# AsPC-1 cells = test: 3D-TGA; format: cell-based, human; conditions: Homo sapiens, ASPC1; AsPC-1, PAN, KRAS G12D; read-out: IC50 in 3D-TGA, agent alone
# Procedure: as §1, §2
# pancreatic cancer = conditions: Phase III MPACT, 1st Line; cited from earlier work
# [1] = MIA-PaCa2, PAN, read-out: IC50 in 3D-TGA, agent alone
# [2] = SW626, COL, KRAS G12V, read-out: IC50 in 3D-TGA, agent alone
# [3] = HT-29, COL, BRAF V600E, read-out: IC50 in 3D-TGA, agent alone
# [4] = RCM-1, COL, KRAS G12V, read-out: IC50 in 3D-TGA, agent alone
# [5] = read-out: IC50 in 3D-TGA Alectinib
# [6] = agent alone, read-out: IC50 in 3D-TGA Crizotinib
structure (smiles),measurement,setting,value
CCc1c2c(nc3ccc(O)cc13)-c1cc3c(c(=O)n1C2)COC(=O)[C@]3(O)CC [SN-38],pIC50,MIA PaCa-2 cells; [1],> 7.30
same,pIC50,Panc 10.05 cells,> 7.30
same,pIC50,Capan-1 cells,> 7.30
same,pIC50,SW626 cells; [2],> 7.30
same,pIC50,PA-TU-8988T cells,> 7.30
same,pIC50,HT-29 cells; [3],> 7.30
same,pIC50,LS1034 cells,> 7.30
same,pIC50,PANC-1 cells,> 7.30
same,pIC50,CFPAC-1 cells,> 7.30
same,pIC50,RCM-1 cells; [4],> 7.30
same,pIC50,Capan-2 cells,> 7.30
same,pIC50,"CL-40 cells; CL-40, COL, KRAS G12D",> 7.30
same,pIC50,HPAF-II cells,> 7.30
same,pIC50,HPAC cells,> 7.30
same,pIC50,"SNU-1197 cells; SNU-1197, COL, KRAS G12D",> 7.30
"O=C1[O][Pt]2([NH][C@@H]3CCCC[C@H]3[NH]2)[O]C1=O [Oxaliplatin, oxaliplatin]",pIC50,MIA PaCa-2 cells; [1],6.00
same,pIC50,"NCI-H358 cells; read-out: IC50 in 3D-TGA, agent alone",6.00
same,pIC50,Panc 10.05 cells,6.00
same,pIC50,Capan-1 cells,6.30 to 7.00
same,pIC50,SW626 cells; [2],6.00
same,pIC50,PA-TU-8988T cells,6.00
same,pIC50,HT-29 cells; [3],6.00
same,pIC50,LS1034 cells,6.00
same,pIC50,PANC-1 cells,6.00
same,pIC50,CFPAC-1 cells,6.00
same,pIC50,PSN-1 cells,6.00
same,pIC50,RCM-1 cells; [4],6.00 to 6.30
same,pIC50,Calu-6 cells,6.00
same,pIC50,A549 cells,6.00
same,pIC50,Capan-2 cells,6.00
same,pIC50,"CL-40 cells; CL-40, COL, KRAS G12D",6.30 to 7.00
same,pIC50,HPAF-II cells,6.00
same,pIC50,HPAC cells,6.00
same,pIC50,"SNU-1197 cells; SNU-1197, COL, KRAS G12D",6.00
"C=CC(=O)Nc1cc(Nc2nccc(-c3cn(C)c4ccccc34)n2)c(OC)cc1N(C)CCN(C)C [Osimertinib, osimertinib]",pIC50,NCI-H1650 cells,6.00
same,pIC50,"MIA PaCa-2 cells; Homo sapiens, read-out: IC50 in 3D-TGA Osimertinib, MIA PACA-2, PAN, agent alone",6.00
same,pIC50,LS411N cells,6.00
same,pIC50,NCI-H2172 cells,6.00
same,pIC50,SK-CO-1 cells,6.00
same,pIC50,"NCI-H358 cells; Homo sapiens, read-out: IC50 in 3D-TGA Osimertinib, agent alone",6.00
same,pIC50,NCI-H1792 cells,6.00
same,pIC50,NCI-H508 cells,6.00
same,pIC50,NCI-H820 cells,6.00
same,pIC50,HCC827 cells,7.30
"CCc1cc2c(cc1N1CCC(N3CCOCC3)CC1)C(C)(C)c1[nH]c3cc(C#N)ccc3c1C2=O [Alectinib, alectinib]",pIC50,SW900 cells; [5],6.00
same,pIC50,NCI-H2087 cells; [5],6.00
same,pIC50,CORL23 cells; [5],6.00
"O=c1[nH]cc(F)c(=O)[nH]1 [Compound 5-FU, 5-fluorouracil]",pIC50,"MIA PaCa-2 cells; Homo sapiens, MIA PaCa-2, MIA-PaCa2, PAN, read-out: IC50 in 3D-TGA, agent alone",6.00
same,pIC50,PA-TU-8988S cells,6.00
same,pIC50,Panc 03.27 cells,6.00
same,pIC50,"Panc 10.05 cells; Homo sapiens, Panc1005",6.00
same,pIC50,Capan-1 cells; Homo sapiens,6.00
same,pIC50,PANC-1 cells; Homo sapiens,6.00
same,pIC50,CFPAC-1 cells; Homo sapiens,6.00
same,pIC50,"PSN-1 cells; Homo sapiens, PSN1",6.00
same,pIC50,Capan-2 cells; Homo sapiens,6.00
same,pIC50,AsPC-1 cells,6.00
same,pIC50,HPAF-II cells; Homo sapiens,6.00
same,pIC50,HPAC cells; Homo sapiens,6.00
"C[C@@H](Oc1cc(-c2cnn(C3CCNCC3)c2)cnc1N)c1c(Cl)ccc(F)c1Cl [Crizotinib, crizotinib]",pIC50,SW900 cells; [6],6.00
same,pIC50,NCI-H2087 cells; [6],6.00
same,pIC50,CORL23 cells; [6],6.00
"Nc1ccn([C@@H]2O[C@H](CO)[C@@H](O)C2(F)F)c(=O)n1 [Gemcitabine, gemcitabine]",pIC50,"SW626 cells; Homo sapiens, SW626, read-out: IC50 in 3D-TGA, agent alone",6.30 to 7.00
same,pIC50,"HT-29 cells; Homo sapiens, HT-29, read-out: IC50 in 3D-TGA, agent alone",> 7.30
same,pIC50,"LS1034 cells; Homo sapiens, LS-1034",6.00 to 6.30
same,pIC50,"RCM-1 cells; Homo sapiens, RCM-1, read-out: IC50 in 3D-TGA, agent alone",6.00 to 6.30
same,pIC50,CL-40 cells; Homo sapiens,> 7.30
same,pIC50,SNU-1197 cells; Homo sapiens,6.30 to 7.00
same,ORR,pancreatic cancer,7%
